The source of these data is patent US10675286B2, “Heterocyclic compounds and uses thereof” (Infinity Pharmaceuticals, Inc., priority 2014, dated 2020).

Series [1] has as its system Lewis Lung Carcinoma. Briefly: Lewis Lung Carcinoma (LLC) tumor brei model. It is filed as in vivo, mouse. As for the experimental part: LLC Lewis Lung carcinoma model: LLC cells are derived from a spontaneous lung tumor from a C57BL/6 mouse and can be studied as a s.c. tumor when injected in the flank, or as an orthotopic tumor if injected i.v., following which it localizes to the lung.
Compound BB was tested in the Lewis Lung Carcinoma model, which is known in the art and briefly described hereinabove.
LLC tumor brei model was prepared and injected subcutaneously into a mouse in the hind flank region. The tumor brei was prepared as follows. LL2-Luc tumor cells were grown in culture in DMEM+10% FBS. Cells were implanted @ 1×10^6 cells/100 uL SC in the flank of C57 Albino mice (male) When tumors reached 1000 mm3, tumors were harvested. Only the white, living tissue was harvested. Any material containing visable blood or necrotic area was isolated away from the tumor tissue. Tumor tissue was placed in a Dounce tissue homoginized with 5 mLs of warm DMEM (no FBS). About 1-2 grams of tumor tissue was collected, homogenized, pooled into 50 mL falcon tube, and cells were counted. Cells were spinned @ 12,000 RPM, and FBS was pooled off. Cells were resuspended to equal 1×10^7 cells/mL with sterile PBS. 100 uL of cells/mouse SC at the hind flank region were implanted. This process was repeated one more time before conducting brei tumor efficacy study.
Flow cytometry was performed to obtain a more extensive cellular subset analysis. In particular, the study examined T cell vs. Myeloid cells, Myeloid cell subsets, Regulatory vs. effector T cells, and Tumor markers vs. WBC (e.g., PD-L1 expression on tumor).
Different populations of tumor-associated myeloid cells can be identified by flow cytometry, e.g., monocytic immature myeloid cells (iMC), Granulocytic iMCs/Neutrophils, Tumor Associated Macrophages (TAMs), and Granulocytic MDSCs. The different populations, and panels for detecting MDSCs, are described in Cancer Discovery 2011; 1:54-67. Tumors may vary in their myeloid cell composition.

Series [2] can be described thus: Tumor growth, Compound BB alone and with 5-FU (FIG. 35). Format: in vivo.
In series [3] the test system is T cell activation (IFN-γ in response to ConA). Briefly: T cell activation in human whole blood (Con-A, IFN-γ readout). To be noted: 24 hours, read-out: IC50, T cell activation as measured by inhibition of IFN-γ. It is filed as cell-based. The method, then: The purpose of this study is to evaluate the effect of various antigens (Con-A) in T cell activation in Human Whole Blood vs. 1:1 Diluted Blood using test compounds at 24 hour time-point.
T-cell Activation Media includes RPMI-1000 ml, MEM NEAA-10 ml, Sodium Pyruvate (100 mM)-10 ml, Pen Strep-10 ml, 2-Mercaptoethanol-1 ml, and FBS-100 ml. 100 ul of whole blood were plated in 96 well plate. Used only the 60 inside wells and filled the outside with media or PBS. Diluted human whole blood with 5% Serum RPMI 1640 1:1 and plate 100 ul in 96 well plate. Used only the 60 inside wells and filled the outside with media or PBS.
The compound was diluted using DMSO (Sigma hybridmax). For 1000 nM highest concentration starting from a 10 mM stock, added 300 ul of DMSO into deep well plates. To the highest concentration add 10 ul of 10 mM compound stock.
A media plate was prepared from DMSO plate by taking 100 ul and go into 900 ul media in new deep well plate, taping plate, and putting on mixer for 5 minutes.
The rested cell plates were removed from incubator. Added 12 uL of diluted compound from media plate (final DMSO is 1%), and incubated for 45 minutes.
Con-A was prepared as follows: 200 ul stock into 1 ml Media, 100 ul of that into 1 ml Media, 100 ul of that into 1 ml Media. […] This was analyzed after 24 Hours.
10× stock in media, added 12 ul per well. […] Analyzed with multiplex elisa from MSD. […]

For series [4], the system named is Lewis Lung Carcinoma. Briefly: Lewis Lung Carcinoma model. It is filed as in vivo. Conditions: single agent.
The subject of series [5] is LPS-induced neutrophil influx into BALF. The experiment in a line: LPS-induced neutrophilia in rats, oral administration. Conditions: rat, p.o., 4 hours post-LPS challenge; dose dependent. Format: in vivo. The method, then:
This study also includes assessment of the exposure to the compounds in plasma and lung tissues.
Ref C is budesonide p.o. The compound was administered p.o. and about 1 hour later, LPS was administered intra-tracheally and plasma was collected. After about 5 hours, plasma and bronchoalveolar lavage samples were collected.

A further series relates to LLC tumor brei. The experiment in a line: LLC tumor brei model, Compound BB with or without cyclophosphamide. It is filed as in vivo, mouse.
In another series the test system is M2 macrophage markers. The experiment in a line: M2 macrophage marker expression with or without PDL-1 antibody (FIG. 42). It is filed as in vivo.
Another series concerns Cytochrome P450 isoforms. The experiment in a line: Cytochrome P450 inhibition (ADME characteristics, Table 25). Format: in vitro ADME. Conditions: main Cytochrome P450 isoforms. An excerpt:
These properties indicate the compound's suitability for in vivo administration.

Entries after “also recorded” stand apart in the source; their conditions may differ.

Description for LLC tumor brei: In this experiment, treatment began when tumors reached approx. 150 mm^3—around day 12. Caliper and xenogen images were monitored. Treatment groups n=13-15/group. […] Samples for FACs analysis were collected on day 23 post implant. Using FACS, cells were assayed for the level of CD11b and Gr-1.

As to `C[C@H](NC(=O)c1c(N)nn2cccnc12)c1cc2cccc(C#Cc3cnn(C)c3)c2c(=O)n1-c1ccccc1` [Compound BB], the “Number of infiltrating TAMs (flow cytometry, FIG. 38A)” value in the series with Lewis Lung Carcinoma [1] was “the number of infiltrating TAMs was decreased”. Also, the “Tumor growth (FIGS. 25A and 25B)” value in the series with Lewis Lung Carcinoma [1] (single agent) is listed as “demonstrated single agent activity”. Also, in the series with Lewis Lung Carcinoma [1] (vs control), the “CD206 staining (M2 macrophages, FIG. 39)” value is recorded as “CD206 staining was reduced”. The tumor growth result is reported as “reduction in tumor growth” in series [2] (Compound BB alone); “further reduction” in series [2] (co-administration of Compound BB and 5-FU). In addition, the IC50 in series [3] came to 2500 nM. In addition, the “activity in the Lewis Lung Carcinoma model” value in the series on Lewis Lung Carcinoma [4] was “single agent activity”. In addition, the “Neutrophil in bronchoalveolar lavage fluid (BALF)” value in series [5] is on record as “reduced neutrophil in bronchoalveolar lavage fluid (BALF); also recorded: more profound effect on neutrophil influx”. Further, the “Tumor growth (FIG. 48)” value with LLC tumor brei (Compound BB 15 mg/kg QD PO, cyclophosphamide 50 mg/kg EOD IP) is given as “reduced tumor growth by about the same amount”. Moreover, the “CD206 population in tumor (FACS, FIG. 52)” value in the series on LLC tumor brei (Compound BB alone or with cyclophosphamide) was “decrease in the CD206 population”. The “M2 macrophage marker ARG-1” value in the series on M2 macrophage markers is recorded as “reduced”. Besides, the “M2 macrophage marker VEGF” value with M2 macrophage markers was “reduced”. Besides, the CYP inhibition entry with Cytochrome P450 isoforms is given as “does not substantially inhibit CYP; also recorded: low potential for reversible inhibition”.
